Measurements reported in publication PMC11876601 (Molecular Systems Biology, 2025).
Where “and” joins values, the source holds several entries; their conditions need not be identical. Equal values may be shown once. Read-outs that look alike come from different tables or passages of the source.

Tests used:
Suit2-07 cells = test: Cell proliferation assay, GEM + ATR inhibitor (Incucyte confluence, 72 h); type: cell-based, human; details: Suit2-07; for EC50: Homo sapiens, 72 h; for Ratio: Response to Response vehicle (mean); for Ratio / Response: R1; for Curve bottom / Curve top: plateau of fitted curve, ratio drug/vehicle confluence;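 on all read-outs here: Suit2-07 cells grown in 96-well plates at 37 °C, 5% CO2, raw 72 h confluence taken without normalizing to starting confluence, each experiment done in triplicate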
Method: (§1) Cells were seeded at 5000 cells/well into 96-well flat bottom plates (Eppendorf) and allowed to attach overnight. […] Cells were incubated for 72 h at 37 °C and 5% CO2. Cell confluence readouts at 72 h were either normalized to their initial confluence using the Incucyte software (AsPC-1) or used without prior normalization (all others). […] Each experiment was performed in triplicates, the data was plotted as mean ± standard deviation (s.d.).

ATR = biological target: T1, ATR (Homo sapiens, UniProt Q13535); test: Kinobeads competition pulldown in AsPC-1 lysate; type: binding; details: AsPC-1 lysate; read-out: KDapp
T1 construct: endogenous in cells; host or cells: AsPC-1 lysate
Method: This was followed by incubation with Kinobeads ε (17.5 µl of settled beads) for 30 min at 4 °C to enrich kinases. […] Enriched proteins were reduced with 50 mM DTT in 8 M urea, 40 mM Tris-HCl, pH 7.4 for 30 min at room temperature, and alkylated with 55 mM chloroacetamide. After reducing the urea concentration to 1–2 M, proteins were digested with trypsin at 37 °C for 16 h. Subsequently, eluted peptides were desalted using SepPak tC18 µElution plates (Waters), freeze-dried by vacuum centrifugation, and stored at −20 °C.
For LC-MS/MS, dried peptides were reconstituted in 0.1% formic acid and analyzed on a Dionex Ultimate3000 nano HPLC (Thermo Scientific) coupled to an Orbitrap Fusion Tribrid mass spectrometer (Thermo Scientific), which was run in data-dependent mode. Peptides were first delivered to a trap column (100 µm × 2 cm, packed in-house with Reprosil-Gold C18 ODS-3 5 µm resin, Dr. Maisch, Ammerbuch) and subsequently washed with solvent A0 (0.1% formic acid in HPLC grade water) at 5 µl/min for 10 min. […] For MS2, up to 12 peptide precursors were isolated (isolation width of 1.2 Th) and subjected to HCD fragmentation using 30% normalized collision energy. […] The duration of dynamic exclusion was set to 30 s.
Oxidized methionine and N-terminal acetylation were set as variable modification, and cysteine carbamidomethylation was set as fixed modification. Label-free quantification (LFQ) and match-between-runs were enabled. All searches were performed with 1% PSM and protein FDR.
Proteins were filtered by potential contaminants, reversed hits and proteins identified only by site. Residual binding of proteins was calculated from LFQ intensities as the ratio between drug doses and vehicle. […] Only kinases quantified with at least 4 unique peptides in the vehicle experiment were considered. Potential targets were further curated through manual inspection of dose-dependent reduction in MS/MS and unique peptide counts.

PANC-1 cells = test: Cell proliferation assay, GEM + ATR inhibitor (Incucyte confluence, 72 h); details: for EC50: Homo sapiens, mean of replicates; for Curve bottom / Curve top: PANC-1, plateau of fitted curve, ratio drug/vehicle confluence;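 on EC50: in combination experiments GEM is titrated while ATRi is held at a fixed sub-EC50 dose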;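 on all read-outs here: PANC-1 confluence at 72 h taken as raw values, not normalized to starting confluence, with each experiment run in triplicate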
Method: as §1

[1] = GEM+ATRi_dose3, GEM 30 nM + ATRi 30 nM
[2] = experiment ATRi (ATR inhibitor alone)

T1 sequence (Q13535 whole entry): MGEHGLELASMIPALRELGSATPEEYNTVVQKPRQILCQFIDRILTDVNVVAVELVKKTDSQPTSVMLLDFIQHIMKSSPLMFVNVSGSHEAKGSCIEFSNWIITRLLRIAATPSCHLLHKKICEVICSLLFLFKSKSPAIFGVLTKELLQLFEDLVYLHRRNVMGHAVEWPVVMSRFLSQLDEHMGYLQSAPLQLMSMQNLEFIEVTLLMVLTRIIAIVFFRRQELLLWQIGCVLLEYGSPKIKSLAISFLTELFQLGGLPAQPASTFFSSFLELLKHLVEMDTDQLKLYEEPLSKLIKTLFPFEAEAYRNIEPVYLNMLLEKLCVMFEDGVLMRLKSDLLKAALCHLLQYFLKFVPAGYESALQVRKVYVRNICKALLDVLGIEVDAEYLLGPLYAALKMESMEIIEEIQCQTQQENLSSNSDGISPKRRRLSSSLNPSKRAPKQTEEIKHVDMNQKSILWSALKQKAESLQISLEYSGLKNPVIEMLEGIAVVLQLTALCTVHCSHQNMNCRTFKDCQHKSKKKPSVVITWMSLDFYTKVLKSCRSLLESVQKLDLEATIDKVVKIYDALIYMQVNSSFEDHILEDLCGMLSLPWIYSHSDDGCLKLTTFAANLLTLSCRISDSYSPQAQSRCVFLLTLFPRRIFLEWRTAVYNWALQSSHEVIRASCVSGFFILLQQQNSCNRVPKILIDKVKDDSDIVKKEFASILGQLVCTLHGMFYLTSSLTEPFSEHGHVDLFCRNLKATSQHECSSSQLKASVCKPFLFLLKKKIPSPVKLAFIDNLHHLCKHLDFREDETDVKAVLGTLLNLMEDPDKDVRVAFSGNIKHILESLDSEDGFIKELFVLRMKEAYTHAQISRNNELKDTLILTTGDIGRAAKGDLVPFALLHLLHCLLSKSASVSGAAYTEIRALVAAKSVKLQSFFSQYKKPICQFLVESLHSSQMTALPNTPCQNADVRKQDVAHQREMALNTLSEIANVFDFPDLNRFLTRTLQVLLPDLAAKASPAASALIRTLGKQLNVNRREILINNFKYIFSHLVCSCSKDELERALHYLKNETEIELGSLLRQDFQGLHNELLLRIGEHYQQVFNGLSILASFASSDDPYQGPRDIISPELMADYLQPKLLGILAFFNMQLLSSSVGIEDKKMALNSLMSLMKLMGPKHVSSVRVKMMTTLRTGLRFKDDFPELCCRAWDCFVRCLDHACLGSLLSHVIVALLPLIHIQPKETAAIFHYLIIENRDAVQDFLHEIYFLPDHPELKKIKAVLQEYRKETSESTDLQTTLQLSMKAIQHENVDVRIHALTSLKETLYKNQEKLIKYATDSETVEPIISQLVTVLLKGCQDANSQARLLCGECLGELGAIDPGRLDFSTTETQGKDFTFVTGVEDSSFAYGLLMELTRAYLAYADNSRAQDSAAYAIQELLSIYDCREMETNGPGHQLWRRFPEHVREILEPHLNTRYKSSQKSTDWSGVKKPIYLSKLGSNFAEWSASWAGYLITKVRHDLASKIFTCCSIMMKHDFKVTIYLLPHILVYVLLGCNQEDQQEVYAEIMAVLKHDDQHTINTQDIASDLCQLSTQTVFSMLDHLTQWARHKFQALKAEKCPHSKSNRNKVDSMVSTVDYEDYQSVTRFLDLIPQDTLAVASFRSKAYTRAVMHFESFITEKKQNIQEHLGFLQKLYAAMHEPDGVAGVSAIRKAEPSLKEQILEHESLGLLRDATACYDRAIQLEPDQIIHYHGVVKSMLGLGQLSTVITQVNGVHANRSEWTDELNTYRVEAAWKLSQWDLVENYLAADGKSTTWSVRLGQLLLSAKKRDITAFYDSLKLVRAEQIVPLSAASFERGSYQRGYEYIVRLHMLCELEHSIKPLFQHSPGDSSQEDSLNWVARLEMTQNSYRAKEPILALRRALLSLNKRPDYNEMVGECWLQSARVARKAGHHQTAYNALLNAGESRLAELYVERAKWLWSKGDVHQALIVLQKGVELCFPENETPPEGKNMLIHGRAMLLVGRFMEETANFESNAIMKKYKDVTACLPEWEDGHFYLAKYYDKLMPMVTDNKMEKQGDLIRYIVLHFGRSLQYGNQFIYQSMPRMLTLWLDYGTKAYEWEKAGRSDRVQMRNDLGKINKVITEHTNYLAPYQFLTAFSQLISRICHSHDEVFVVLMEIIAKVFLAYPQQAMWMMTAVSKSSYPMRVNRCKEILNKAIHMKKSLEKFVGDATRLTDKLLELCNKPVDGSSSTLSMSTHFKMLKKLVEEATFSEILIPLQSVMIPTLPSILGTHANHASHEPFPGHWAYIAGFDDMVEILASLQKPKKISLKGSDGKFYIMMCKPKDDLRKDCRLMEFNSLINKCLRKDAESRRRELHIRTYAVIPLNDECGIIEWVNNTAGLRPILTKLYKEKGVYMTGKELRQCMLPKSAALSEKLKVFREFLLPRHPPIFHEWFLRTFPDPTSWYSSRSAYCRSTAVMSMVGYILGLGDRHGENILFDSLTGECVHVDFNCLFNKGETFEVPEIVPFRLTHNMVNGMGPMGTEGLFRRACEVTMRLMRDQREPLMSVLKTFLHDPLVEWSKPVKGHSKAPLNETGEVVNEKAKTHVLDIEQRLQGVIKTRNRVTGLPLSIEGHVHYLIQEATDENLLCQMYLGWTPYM
T1 sequence (Q8WXE1 whole entry partner): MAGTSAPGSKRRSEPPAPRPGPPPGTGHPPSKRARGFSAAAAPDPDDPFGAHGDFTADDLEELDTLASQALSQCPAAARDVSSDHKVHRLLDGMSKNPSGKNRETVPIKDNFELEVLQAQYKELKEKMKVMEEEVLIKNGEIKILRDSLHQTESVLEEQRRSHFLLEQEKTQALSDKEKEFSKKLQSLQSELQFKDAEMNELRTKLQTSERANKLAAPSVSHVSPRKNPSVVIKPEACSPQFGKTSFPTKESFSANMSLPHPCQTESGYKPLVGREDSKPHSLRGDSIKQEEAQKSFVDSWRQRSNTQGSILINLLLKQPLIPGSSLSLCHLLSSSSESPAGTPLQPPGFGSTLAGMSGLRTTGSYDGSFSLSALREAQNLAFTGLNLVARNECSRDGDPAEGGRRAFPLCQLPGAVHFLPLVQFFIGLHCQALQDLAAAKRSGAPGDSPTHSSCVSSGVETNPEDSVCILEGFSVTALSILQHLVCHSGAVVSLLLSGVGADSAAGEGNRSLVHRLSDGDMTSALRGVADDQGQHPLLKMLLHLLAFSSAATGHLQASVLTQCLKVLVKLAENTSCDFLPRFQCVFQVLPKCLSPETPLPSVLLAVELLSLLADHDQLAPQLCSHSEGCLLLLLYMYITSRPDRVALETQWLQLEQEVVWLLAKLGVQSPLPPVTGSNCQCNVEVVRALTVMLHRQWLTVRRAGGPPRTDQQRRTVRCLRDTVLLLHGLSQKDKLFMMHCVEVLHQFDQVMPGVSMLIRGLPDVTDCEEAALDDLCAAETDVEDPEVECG

Structure (SMILES): Nc1nn2cc(F)cnc2c1C(=O)Nc1cncc(F)c1N1CCC(C(=O)N2CCN(C3COC3)CC2)CC1 [Gartisertib]
- EC50 (Suit2-07 cells; experiment ATRi (ATR inhibitor alone), -log10 of EC50 [M], read-out: pEC50 (converted)): 3.39e-07 M
- EC50 (Suit2-07 cells; experiment ATRi (ATR inhibitor alone), mean (one replicate), read-out: EC50 mean): 3.39e-07 M
- EC50 (Suit2-07 cells; experiment ATRi (ATR inhibitor alone), replicate R1, read-out: EC50): 3.39e-07 M
- Ratio (Suit2-07 cells; GEM+ATRi_dose1, GEM 0 nM + ATRi 10 nM): 1.02
- Ratio (Suit2-07 cells; GEM+ATRi_dose1, GEM 1 nM + ATRi 10 nM): 1.01
- Ratio (Suit2-07 cells; GEM+ATRi_dose1, GEM 3 nM + ATRi 10 nM): 0.93
- Ratio (Suit2-07 cells; GEM+ATRi_dose1, GEM 10 nM + ATRi 10 nM): 0.23
- Ratio (Suit2-07 cells; GEM+ATRi_dose1, GEM 30 nM + ATRi 10 nM): 0.15
- Ratio (Suit2-07 cells; GEM+ATRi_dose1, GEM 100 nM + ATRi 10 nM): 0.15
- Ratio (Suit2-07 cells; GEM+ATRi_dose1, GEM 300 nM + ATRi 10 nM): 0.12
- Ratio (Suit2-07 cells; GEM+ATRi_dose1, GEM 1000 nM + ATRi 10 nM): 0.11
- Ratio (Suit2-07 cells; GEM+ATRi_dose1, GEM 3000 nM + ATRi 10 nM): 0.09
- Ratio (Suit2-07 cells; GEM+ATRi_dose2, GEM 0 nM + ATRi 3 nM): 0.98
- Ratio (Suit2-07 cells; GEM+ATRi_dose2, GEM 1 nM + ATRi 3 nM): 0.98
- Ratio (Suit2-07 cells; GEM+ATRi_dose2, GEM 3 nM + ATRi 3 nM): 0.26
- Ratio (Suit2-07 cells; GEM+ATRi_dose2, GEM 10 nM + ATRi 3 nM): 0.16
- Ratio (Suit2-07 cells; GEM+ATRi_dose2, GEM 30 nM + ATRi 3 nM): 0.13
- Ratio (Suit2-07 cells; GEM+ATRi_dose2, GEM 100 nM + ATRi 3 nM): 0.13
- Ratio (Suit2-07 cells; GEM+ATRi_dose2, GEM 300 nM + ATRi 3 nM): 0.11
- Ratio (Suit2-07 cells; GEM+ATRi_dose2, GEM 1000 nM + ATRi 3 nM): 0.11
- Ratio (Suit2-07 cells; GEM+ATRi_dose2, GEM 3000 nM + ATRi 3 nM): 0.09
- Ratio (Suit2-07 cells; GEM+ATRi_dose3, GEM 0 nM + ATRi 30 nM): 0.97
- Ratio (Suit2-07 cells; GEM+ATRi_dose3, GEM 1 nM + ATRi 30 nM): 0.93
- Ratio (Suit2-07 cells; GEM+ATRi_dose3, GEM 3 nM + ATRi 30 nM): 0.37
- Ratio (Suit2-07 cells; GEM+ATRi_dose3, GEM 10 nM + ATRi 30 nM): 0.18
- Ratio (Suit2-07 cells; [1]): 0.14
- Ratio (Suit2-07 cells; GEM+ATRi_dose3, GEM 100 nM + ATRi 30 nM): 0.13
- Ratio (Suit2-07 cells; GEM+ATRi_dose3, GEM 300 nM + ATRi 30 nM): 0.12
- Ratio (Suit2-07 cells; GEM+ATRi_dose3, GEM 1000 nM + ATRi 30 nM): 0.13
- Ratio (Suit2-07 cells; GEM+ATRi_dose3, GEM 3000 nM + ATRi 30 nM): 0.08
- Ratio (Suit2-07 cells; experiment ATRi, ATRi 3 nM, GEM 0 nM): 1.02
- Ratio (Suit2-07 cells; experiment ATRi, ATRi 10 nM, GEM 0 nM): 1.01
- Ratio (Suit2-07 cells; experiment ATRi, ATRi 30 nM, GEM 0 nM): 0.98
- Ratio (Suit2-07 cells; experiment ATRi, ATRi 100 nM, GEM 0 nM): 0.96
- Ratio (Suit2-07 cells; experiment ATRi, ATRi 300 nM, GEM 0 nM): 0.63
- Ratio (Suit2-07 cells; experiment ATRi, ATRi 1000 nM, GEM 0 nM): 0.22
- Ratio (Suit2-07 cells; experiment ATRi, ATRi 3000 nM, GEM 0 nM): 0.19
- Ratio (Suit2-07 cells; experiment ATRi, ATRi 10000 nM, GEM 0 nM): 0.12
- Response (Suit2-07 cells; GEM+ATRi_dose1, GEM 0 nM + ATRi 10 nM, in % (unit assumed)): 99.22
- Response (Suit2-07 cells; GEM+ATRi_dose1, GEM 1 nM + ATRi 10 nM, in % (unit assumed)): 98.36
- Response (Suit2-07 cells; GEM+ATRi_dose1, GEM 3 nM + ATRi 10 nM, in % (unit assumed)): 90.74
- Response (Suit2-07 cells; GEM+ATRi_dose1, GEM 10 nM + ATRi 10 nM, in % (unit assumed)): 21.98
- Response (Suit2-07 cells; GEM+ATRi_dose1, GEM 30 nM + ATRi 10 nM, in % (unit assumed)): 14.67
- Response (Suit2-07 cells; GEM+ATRi_dose1, GEM 100 nM + ATRi 10 nM, in % (unit assumed)): 14.71
- Response (Suit2-07 cells; GEM+ATRi_dose1, GEM 300 nM + ATRi 10 nM, in % (unit assumed)): 11.45
- Response (Suit2-07 cells; GEM+ATRi_dose1, GEM 1000 nM + ATRi 10 nM, in % (unit assumed)): 10.53
- Response (Suit2-07 cells; GEM+ATRi_dose1, GEM 3000 nM + ATRi 10 nM, in % (unit assumed)): 8.70
- Response (Suit2-07 cells; GEM+ATRi_dose2, GEM 0 nM + ATRi 3 nM, in % (unit assumed)): 95.38
- Response (Suit2-07 cells; GEM+ATRi_dose2, GEM 1 nM + ATRi 3 nM, in % (unit assumed)): 96.21
- Response (Suit2-07 cells; GEM+ATRi_dose2, GEM 3 nM + ATRi 3 nM, in % (unit assumed)): 25.36
- Response (Suit2-07 cells; GEM+ATRi_dose2, GEM 10 nM + ATRi 3 nM, in % (unit assumed)): 15.98
- Response (Suit2-07 cells; GEM+ATRi_dose2, GEM 30 nM + ATRi 3 nM, in % (unit assumed)): 13.06
- Response (Suit2-07 cells; GEM+ATRi_dose2, GEM 100 nM + ATRi 3 nM, in % (unit assumed)): 13.09
- Response (Suit2-07 cells; GEM+ATRi_dose2, GEM 300 nM + ATRi 3 nM, in % (unit assumed)): 10.34
- Response (Suit2-07 cells; GEM+ATRi_dose2, GEM 1000 nM + ATRi 3 nM, in % (unit assumed)): 10.34
- Response (Suit2-07 cells; GEM+ATRi_dose2, GEM 3000 nM + ATRi 3 nM, in % (unit assumed)): 9.00
- Response (Suit2-07 cells; GEM+ATRi_dose3, GEM 0 nM + ATRi 30 nM, in % (unit assumed)): 94.90
- Response (Suit2-07 cells; GEM+ATRi_dose3, GEM 1 nM + ATRi 30 nM, in % (unit assumed)): 91.25
- Response (Suit2-07 cells; GEM+ATRi_dose3, GEM 3 nM + ATRi 30 nM, in % (unit assumed)): 36.47
- Response (Suit2-07 cells; GEM+ATRi_dose3, GEM 10 nM + ATRi 30 nM, in % (unit assumed)): 17.41
- Response (Suit2-07 cells; [1]): 13.78
- Response (Suit2-07 cells; GEM+ATRi_dose3, GEM 100 nM + ATRi 30 nM, in % (unit assumed)): 12.30
- Response (Suit2-07 cells; GEM+ATRi_dose3, GEM 300 nM + ATRi 30 nM, in % (unit assumed)): 12.12
- Response (Suit2-07 cells; GEM+ATRi_dose3, GEM 1000 nM + ATRi 30 nM, in % (unit assumed)): 12.34
- Response (Suit2-07 cells; GEM+ATRi_dose3, GEM 3000 nM + ATRi 30 nM, in % (unit assumed)): 7.88
- Curve bottom (Suit2-07 cells; [2]): 1.01
- Curve top (Suit2-07 cells; [2]): 0.15
- Response (Suit2-07 cells; experiment ATRi, ATRi 3 nM, GEM 0 nM, in % (unit assumed)): 99.33
- Response (Suit2-07 cells; experiment ATRi, ATRi 10 nM, GEM 0 nM, in % (unit assumed)): 98.82
- Response (Suit2-07 cells; experiment ATRi, ATRi 30 nM, GEM 0 nM, in % (unit assumed)): 95.35
- Response (Suit2-07 cells; experiment ATRi, ATRi 100 nM, GEM 0 nM, in % (unit assumed)): 93.53
- Response (Suit2-07 cells; experiment ATRi, ATRi 300 nM, GEM 0 nM, in % (unit assumed)): 61.81
- Response (Suit2-07 cells; experiment ATRi, ATRi 1000 nM, GEM 0 nM, in % (unit assumed)): 21.20
- Response (Suit2-07 cells; experiment ATRi, ATRi 3000 nM, GEM 0 nM, in % (unit assumed)): 18.17
- Response (Suit2-07 cells; experiment ATRi, ATRi 10000 nM, GEM 0 nM, in % (unit assumed)): 11.75
- Curve bottom (Suit2-07 cells; experiment GEM+ATRi_dose1): 1.01
- Curve top (Suit2-07 cells; experiment GEM+ATRi_dose1): 0.12
- Curve bottom (Suit2-07 cells; experiment GEM+ATRi_dose2): 0.98
- Curve top (Suit2-07 cells; experiment GEM+ATRi_dose2): 0.12
- Curve bottom (Suit2-07 cells; experiment GEM+ATRi_dose3): 0.98
- Curve top (Suit2-07 cells; experiment GEM+ATRi_dose3): 0.13
- Kd (ATR): 318 nM
- EC50 (PANC-1 cells; PANC-1, 72 h, read-out: EC50 mean [nM], PANC-1, experiment ATRi (ATR inhibitor alone)): 7880 nM
- EC50 (PANC-1 cells; PANC-1, read-out: EC50 mean [nM], PANC-1, experiment ATRi (ATR inhibitor alone)): 7880 nM
- EC50 (PANC-1 cells; PANC-1, read-out: EC50 mean [nM], PANC-1, experiment GEM+ATRi_dose1): 4.13 nM
- EC50 (PANC-1 cells; PANC-1, read-out: EC50 mean [nM], PANC-1, experiment GEM+ATRi_dose2): 8.99 nM
- EC50 (PANC-1 cells; PANC-1, read-out: EC50 mean [nM], PANC-1, experiment GEM+ATRi_dose3): 6.69 nM
- Curve bottom (PANC-1 cells; [2]): 1.03 and 0.99 and 0.93
- Curve top (PANC-1 cells; experiment GEM+ATRi_dose1): 0.48 and 0.43 and 0.49
- Curve top (PANC-1 cells; experiment GEM+ATRi_dose2): 0.47 and 0.43 and 0.52
- Curve bottom (PANC-1 cells; experiment GEM+ATRi_dose3): 0.95 and 0.86 and 1.00
- Curve top (PANC-1 cells; experiment GEM+ATRi_dose3): 0.47 and 0.45 and 0.50
